One experiment concerns monocytes (human PBMC). Description: IL-8 release induced by LPS in monocytes (ELISA). In kind it is cell-based. The conditions noted are these: 15 μM and 30 μM, 1 hour before 1 μg/ml LPS, supernatant after 3 hours. The method, then:
Peripheral bloods were collected from a healthy person, put into a heparinized tube and then well mixed with 1× PBS buffer. Then, they were layered in Ficoll-Hypaque solution (density 1.077, Sigma Chemical Co., USA) and then centrifuged at 2500 rpm at 4° C. for 25 min. After the monocyte layer between Ficoll layer and plasma layer had been cautiously recovered, 1×PBS buffer was added thereto and mixed well. It was then centrifuged again at 2500 rpm at 4° C. for 25 min. Such centrifugation procedures were repeated twice until red blood cells were depleted. Thereafter, the pellet was cultured in FBS at 37° C. for 15 min and centrifuged at 2500 rpm for 10 min. Then, 1×PBS buffer was added again to the pellet. The isolated cells were layered in percoll solution (density 1.066) and then centrifuged at 2500 rpm at 4° C. for 30 min. After only monocyte layer had been recovered from the isolated layers, 1×PBS buffer was added thereto. They were centrifuged at 2500 rpm for 15 min. […]
The neutrophils and monocytes isolated in Examples <2-1> and <2-2> above were cultured in a 96-well plate to which RPMI1640 medium containing 10% FBS was added, at a concentration of 1×10^5 cells/well/0.2 ml, respectively. […] Then, the level of IL-8 was measured using ELISA kit (Biosource, USA).
A general note: ELISA stands for enzyme-linked immunosorbent assay.

The next experiment deals with E. coli (DH5a). As to the kind of experiment: Bacteria-induced sepsis model. In kind it is in vivo, ICR mice. The following applies: 10 mg/kg subcutaneous, 2 and 14 hours after i.p. E. coli. The method, then: (§1) ICR mice (25-30 g in body weight; MJ Ltd.) were intraperitoneally injected with alive 10^8 cells/ml E. coli (DH5a) that were suspended in 0.5 ml of PBS (phosphate-buffered saline) to cause peritonitis, thereby inducing sepsis.
(§2) After the peritoneal cavity of mice had been exposed, it was washed with sterilized saline (2 ml). The resultant solution was diluted with HBSS (Sigma Chemical Co., USA) in a ratio of 1/1000, and then 10 μl of each diluted solution was spread on Trypticase Soy agar (BBL, Becton Dickinson Co., USA) plates. After overnight incubation at 37° C., colony forming unit (CFU) was measured.
14 ICR mice of bacteria-induced septicemia model according to Reference Example <1-1> a) were divided into two groups of 7 mice. 7 mice were administered with 1-stearoyl LPC (Sigma Chemical Co., USA) dissolved in 1% BSA (bovine serum albumin) solution containing no fatty acid in an amount of 10 mg/kg by subcutaneous injection, 2 and 14 hours after E. coli was intraperitoneally injected, respectively (experimental group). The remaining 7 mice were administered with 1% BSA solution containing no fatty acid of the same amount as above, instead of LPC, in the same manner (control group). […] Also, the number of intraperitoneal E. coli cells 24 hours after the intraperitoneal injection was measured in accordance with the method described in Reference Example 3.

The next experiment deals with CLP-induced Sepsis model. Description: CLP-induced sepsis model. In kind it is in vivo, ICR mice. How it is done:
After ICR mice (25-30 g in body weight; MJ Ltd.) had been anesthetized with pentobarbital, right abdominal sites of the mice were dissected in a length of 1 cm to expose their cecum, and sites below the ileocecal valve were ligated. And then, after 4˜6 punctures had been created on the cecum with 21-gauge needle, the abdomen was sutured again to cause peritonitis, thereby inducing Sepsis.
as §2
7 mice were administered with 1-stearoyl LPC (Sigma Chemical Co., USA) dissolved in 1% BSA solution containing no fatty acid in an amount of 10 mg/kg by subcutaneous injection 2 and 14 hours after the CLP surgery, respectively (experimental group). The remaining 7 mice were administered with 1% BSA solution containing no fatty acid of the same amount as above in the same manner (control group). The numbers of intraperitoneal E. coli cells in the ICR mice of experimental and control groups were measured in accordance with Reference Example 3, 24 hours after the CLP surgery.
Each 10 ICR mice were intraperitoneally administered with 1-stearoyl LPC (Sigma Chemical Co., USA) dissolved in 1% BSA solution containing no fatty acid in amounts of 5, 10, and 20 mg/kg, respectively, four times at intervals of 12 hours, 2 hours after the CLP surgery (experimental group-1, -2 and -3). The remaining 10 ICR mice were administered only with 1% BSA solution containing no fatty acid (control group). And then, the survival rates of mice in experimental- and control groups were investigated over the lapse of time.
10 mice for the experimental group were intraperitoneally administered with 1-stearoyl LPC (Sigma Chemical Co., USA) dissolved in 1% BSA solution containing no fatty acid in an amount of 10 mg/kg, four times at intervals of 12 hours, 10 hours after the CLP surgery. The remaining 10 mice for the control group were administered only with 1% BSA solution containing no fatty acid. Thereafter, the survival rates of ICR mice in experimental- and control groups were investigated over the lapse of time.
CLP-induced Sepsis model mice were subcutaneously injected with SPC, instead of 1-stearoyl LPC, in dosages of 3 mg/kg and 30 mg/kg four times at intervals of 12 hours, 2 hours after the CLP surgery, respectively. The survival rates of mice were investigated.

The test system of a further experiment is neutrophils. Description: Bactericidal activity of neutrophils from bacteria-induced sepsis model mice. In kind it is cell-based. The following applies: 30 μM 1-stearoyl LPC for 1 hour after E. coli ingestion, 1 hour killing time; vs PBS control. The method, then: as §1
The isolated neutrophils were adhered to the cover slip coated with poly-L-Lysine (0.01%) in a cell incubator maintained at 37° C., at a cell concentration of 10^6 cells/ml for 1 hour. Thereafter, E. coli was added thereto in a concentration of 10^6 cells/ml and cultured for 1 hour. E. coli cells that were not ingested by neutrophils were removed by washing the cover slip with PBS buffer. The cover slip was then treated with […] 1-stearoyl LPC, and further cultured for another 1 hour. In this stage, the cover slip of the control group was treated with PBS buffer, instead of LPC. Thereafter, after the exchange of a new RPMI-1640 medium, they were further cultured for 1 hour to give killing time. Then, the neutrophils were broken using Triton X-100 (0.05%), and accordingly E. coli cells were recovered. The recovered E. coli cells were spread onto a plate and cultured in an incubator maintained at 37° C. The number of E. coli cells that had grown on the medium was counted and subjected to statistical analysis. […]

Each structure is given as a SMILES string.

Consider `CCCCCCCCCCCCCCCCCC(=O)OCC(O)COP(=O)([O-])OCC[N+](C)(C)C` (stereo not shown) [1-stearoyl LPC, 1-stearoyl (18:0) lysophosphatidylcholine], for which, in the experiment with monocytes (human PBMC), the “level of IL-8 release that had been increased by LPS in monocytes” value is “inhibited by LPC in a concentration-dependent manner”. For the same compound, the “number of intraperitoneal E. coli cells” value in the experiment with E. coli (DH5a) (24 hours after injection, P<0.01) is listed as “remarkably decreased”; in the experiment with CLP-induced Sepsis model (10 mg/kg subcutaneous, 2 and 14 hours after CLP surgery, 24 hours after surgery, P<0.01) it was “remarkably decreased”. Besides, the “death rate due to septicemia (survival rate over time)” value in the experiment with E. coli (DH5a) (P<0.05) is on record as “significantly suppressed”. In addition, the “therapeutic effect (survival rate) when septicemia already developed” value in the experiment with CLP-induced Sepsis model (10 mg/kg intraperitoneal, four times at intervals of 12 hours, starting 10 hours after CLP surgery) is listed as “excellent therapeutic effect”. In addition, the survival rate result in the experiment on CLP-induced Sepsis model (5, 10 and 20 mg/kg intraperitoneal, four times at intervals of 12 hours, starting 2 hours after CLP surgery) is “much higher than that of the mice in control group”. In addition, the “number of alive E. coli recovered from neutrophils” value in the experiment with neutrophils is given as “significantly decreased”.

Source of the values: US7410955B2, “Therapeutic use of agonist ligands specific to G2A receptor” (Biosynergen, Inc., priority 2002, dated 2008).
